{
  "source": "patent US8563241B2",
  "about": "(Institut de Cardiologie de Montreal, priority 2009, dated 2013)",
  "key": {"[1]": {"assay": "Pilot genetic study of INR fluctuations in 324 post INR-stabilization atrial fibrillation patients by CYP4F2 rs2108622 and NR1I2 rs6772976 genotype", "assay_type": "in vivo, human", "procedure": "(§1) The study was focused on the post INR-stabilization period by excluding the first six months of therapy, and further excluded hospitalization periods. […] INR fluctuations were measured according to the Rosendaal method based on linear interpolation.\nFor the pilot genetic study, 324 patients with atrial fibrillation were selected, for whom therapy was started prior to Aug. 1, 2005, with a follow up of 36 months or more and with at most 70 years of age. […] Genotyping was conducted using the Sequenom technology."}, "[2]": {"assay": "Retrospective study of INR fluctuations outside the target therapeutic INR range in 1,615 patients of the MHI warfarin clinic (Rosendaal method)", "assay_type": "in vivo, human", "conditions": "post-stabilization follow up period (first six months and hospitalization periods excluded)", "procedure": "as §1"}},
  "data": [
    {"smiles": "CC(=O)CC(c1ccccc1)c1c(O)c2ccccc2oc1=O", "note": "(stereo not shown) [warfarin]", "values": [
      {"measurement": "average % of the time above the patient-specific target therapeutic INR range", "setting": "[1]; patients with CYP4F2 rs2108622 CC genotype", "result": 17.1, "unit": "%"},
      {"measurement": "average % of the time above the patient-specific target therapeutic INR range", "setting": "[1]; patients with CYP4F2 rs2108622 CT genotype", "result": 15.9, "unit": "%"},
      {"measurement": "average % of the time above the patient-specific target therapeutic INR range", "setting": "[1]; patients with CYP4F2 rs2108622 TT genotype", "result": 29.6, "unit": "%"},
      {"measurement": "time above target therapeutic INR range", "setting": "[2]", "result": 17.2, "unit": "%"}
    ]}
  ]
}
